The source of these data is publication PMC9457997, “2-(Nitroaryl)-5-Substituted-1,3,4-Thiadiazole Derivatives with Antiprotozoal Activities: In Vitro and In Vivo Study” (Molecules, 2022).

Structures are written as SMILES. Converted amounts (≈) assume the structure as drawn. Read-outs that look alike come from different tables or passages of the source.

Data set [1] has as its system T. b. rhodesiense, strain STIB 900 trypomastigotes. The data set is described as follows: In vitro activity against T. b. rhodesiense STIB 900 bloodstream forms. The data set is classed as cell-based. The settings on record: Trypanosoma brucei, read-out: T. b. rhodesiense IC50.
The next data set can be described thus: in vitro. Conditions: rat.
The subject of data set [2] is T. cruzi, strain Tulahuen C4 amastigotes. The experiment in a line: In vitro activity against T. cruzi amastigotes. It is filed as cell-based. The settings on record: Trypanosoma cruzi, read-out: T. cruzi IC50. The method, then:
Although all of the compounds had been tested against Leishmania major promastigotes in our previous works, to deeper evaluate the antitrypanosomatid potential of the selected nitroimidazole derivatives, their activity was measured against L. donovani axenic amastigotes and T. cruzi amastigotes (Table 2). Miltefosine and benznidazole were used as reference drugs. Compounds 18a and 18g were also tested against L. donovani intracellular amastigotes in peritoneal murine macrophages in a further assay. […]. In vitro activity against the protozoan parasites T. b. rhodesiense, T.cruzi, L. donovani and cytotoxicity assessment against L6 cells were determined as reported previously. The following strains, parasite forms, and positive controls were used: T. b. rhodesiense STIB 900 bloodstream forms, melarsoprol (received from WHO, Arsobal Sanofi); T.cruzi Tulahuen C2C4 intracellular amastigotes, benznidazole (received from DNDi synthesized by Epichem Pty Ltd., Murdoch, Australia); L. donovani MHOM-ET-67/L82 axenically grown amastigotes and intracellular amastigotes, miltefosine (Sigma M5571). L6 rat skeletal myoblasts (ATCC CRL-1458), podophyllotoxin (Sigma P4405).

Data set [3] deals with T. b. rhodesiense STIB 900. The data set is described as follows: T. b. rhodesiense STIB 900 acute mouse model of HAT. The data set is classed as in vivo. Conditions: for Cured/Infected / Mean Survival Days (MSD): 4 × 50 mg/kg i.p., acute mouse model STIB 900. How it is done:
[…]. All of these compounds were administered at an intraperitoneal dose of 50 mg/kg/day for 4 days. […] A total of three of the four mice treated with morpholine derivative 18b were cured and the parasite was not found in the blood of one mouse until day 60 of infection. […] All of the mice treated with compound 18f survived 60 days, but one mouse was parasite positive. Compound 18d presented the least cure rate; a total of three mice were parasite positive and died between days 15 and 20, and one mouse survived.
The in vivo efficacy was determined in the T. b. rhodesiense STIB 900 acute mouse model that mimics the first stage of the disease as described earlier. In vivo efficacy studies in mice were conducted at the Swiss Tropical and Public Health Institute (Basel) (License number 2813), according to the rules and regulations for the protection of animal rights (“Tierschutzverordnung”) of the Swiss “Bundesamt für Veterinärwesen”. They were approved by the veterinary office of Canton Basel-Stadt, Switzerland.

Data set [4] relates to L. donovani, strain MHOM-ET-67/L82 axenically grown amastigotes. The experiment in a line: In vitro activity against L. donovani axenic amastigotes. It is filed as cell-based. The settings on record: for IC50: Leishmania donovani, strain MHOM-ET-67/L82 axenically grown amastigotes, means of two independent assays; for TDR criteria class against L. donovani amastigotes: TDR criteria for antiparasitic activity. The method, then: (§1) Miltefosine and benznidazole were used as reference drugs. […] In vitro activity against the protozoan parasites T. b. rhodesiense, T.cruzi, L. donovani and cytotoxicity assessment against L6 cells were determined as reported previously. The following strains, parasite forms, and positive controls were used: T. b. rhodesiense STIB 900 bloodstream forms, melarsoprol (received from WHO, Arsobal Sanofi); T.cruzi Tulahuen C2C4 intracellular amastigotes, benznidazole (received from DNDi synthesized by Epichem Pty Ltd., Murdoch, Australia); L. donovani MHOM-ET-67/L82 axenically grown amastigotes and intracellular amastigotes, miltefosine (Sigma M5571).

Another data set concerns T. b. rhodesiense. The settings on record: cited from earlier work.
The subject of the next data set is T. b. brucei. Conditions: cited from earlier work.
The next data set relates to T. brucei. The settings on record: cited from earlier work.
Data set [5] concerns L. donovani intracellular amastigotes in peritoneal murine macrophages. The data set is described as follows: In vitro activity against L. donovani intracellular amastigotes. It is filed as cell-based. Conditions: Leishmania donovani, Macrophage, means of two independent assays. How it is done:
as §1

A further data set can be described thus: Cytotoxicity in L6 cells. The settings on record: rat.
The next data set deals with T. b. gambiense. The settings on record: gambiense HAT patients; cited from earlier work.
In another data set the test system is HAT mouse model. The settings on record: cited from earlier work.
On the set-up of data set [6]: method as in PMID 29191556. Conditions: cited from earlier work.
Setting [7] is: strain STIB 900 trypomastigotes (BSF form), means of two independent assays.
[8] abbreviates: read-out: IC50 against T. b. rhodesiense.
The mark [9] stands for this setting: read-out: IC50 against T. b. brucei.

Consider `O=[N+]([O-])c1ccc(-c2nnc(N3CCNCC3)s2)o1` [Compound 16c], for which the half-maximal inhibitory concentration (IC50) in data set [1] (setting [7]) came to 0.06 µM; in “in vitro”, 1.06 µM.

`O=C(Cn1ccnc1[N+](=O)[O-])NCc1ccccc1` [Benznidazole, reference compound]: the IC50 in data set [2] stood at 1.43 µM.

`CN1CCN(c2nnc(-c3ncc([N+](=O)[O-])n3C)s2)CC1` [Compound 18d]: the values for the IC50 (in data set [1] (setting [7]); in data set [2]; in the data set “in vitro”) were 0.142 µM, 0.462 µM and more than 290 µM, respectively. Further, in data set [3], the Cured/Infected is 1/4. In addition, in data set [3], the “Mean Survival Days (MSD)” value is more than 27.75 days.

As for `Cn1c([N+](=O)[O-])cnc1-c1nnc(N2CCNCC2)s1` [Compound 18c], the 50% inhibitory concentration (IC50) in data set [1] (setting [7]) was found to be 0.012 µM; in data set [2], 0.125 µM; in data set [4], 3.23 µM; in the data set “in vitro”, 140 µM. Also, the death during treatment result in data set [3] (50 mg/kg/day i.p., mouse excluded from the experimental group) is reported as “One mouse died on day six”. For the same compound, the Cured/Infected in [3] is reported as 3/3. In addition, the “Mean Survival Days (MSD)” value in data set [3] was more than 60 days.

Consider `O=[N+]([O-])c1ccc(-c2nnc(N3CCOCC3)s2)s1` [Compound 17b], for which the IC50 in data set [1] (setting [7]) is 1.18 µM; in the data set “in vitro”, more than 302 µM.

`O=[N+]([O-])c1ccc(-c2nnc(N3CCN(c4ccccc4)CC3)s2)o1` [Compound 16e]: the IC50 in [1] (setting [7]) came out at 0.54 µM; in “in vitro”, 6.43 µM.

On to `C=CCOc1ccc(NC(=O)c2ccc([N+](=O)[O-])o2)cc1C(F)(F)F` [Compound 9], for which the values for the IC50 in the data set with T. b. rhodesiense (setting [8]) and in the data set with T. b. brucei (setting [9]) were 0.0029 µM and 0.0024 µM, respectively.

In the case of `CCCCCCCOC(=O)N/N=C/c1ccc([N+](=O)[O-])o1` [Compound 8], in the data set with T. brucei (read-out: IC50 against the BSF form of T. brucei), the IC50 was 0.12 µM.

Turning to `O=[N+]([O-])c1ccc(-c2nnc(N3CCNCC3)s2)s1` [Compound 17c], the 50% inhibitory concentration (IC50) in data set [1] (setting [7]) amounted to 0.346 µM; in the data set “in vitro”, 6.38 µM.

Turning to `CN1CCN(c2nnc(-c3ccc([N+](=O)[O-])o3)s2)CC1` [Compound 16d], the values for the IC50 (in [1] (setting [7]); in the data set “in vitro”) were 0.241 µM and 1.36 µM, respectively.

In the case of `O=C1NC(c2ccccc2)=CN2C=C([N+](=O)[O-])NC12` (stereo not drawn) [Compound 5a], in the data set on T. b. brucei (read-out: IC50 against T. brucei brucei), the 50% inhibitory concentration (IC50) is 0.22 µM.

For the compound `CC(=O)N1CCN(c2nnc(-c3ccc([N+](=O)[O-])o3)s2)CC1` [Compound 16f], the figures for the IC50 (in data set [1] (setting [7]); in “in vitro”) were 0.081 µM and 2.49 µM, respectively.

Take `O=C(c1ccccc1)N1CCN(c2nnc(-c3ccc([N+](=O)[O-])s3)s2)CC1` [Compound 17g]: the IC50 came out at 0.438 µM in [1] (setting [7]) and 51 µM in the data set “in vitro”.

As for `Cn1c([N+](=O)[O-])cnc1-c1nnc(N2CCN(c3ccccc3)CC2)s1` [Compound 18e], the concentration for half-maximal inhibition (IC50) in [1] (setting [7]) came to 0.285 µM; in the data set “in vitro”, 163 µM.

In the case of `O=[N+]([O-])c1ccc(-c2nnc(N3CCCCC3)s2)s1` [Compound 17a], the IC50 worked out at 0.647 µM in [1] (setting [7]) and 226 µM in the data set “in vitro”.

Consider `Cn1c([N+](=O)[O-])cnc1-c1nnc(N2CCOCC2)s1` [Compound 18b], for which the IC50 is 0.145 µM in data set [1] (setting [7]), 0.294 µM in [2], 0.445 µM in data set [4] and 265 µM in “in vitro”. Also, in data set [4], the “TDR criteria class against L. donovani amastigotes” value (“TDR criteria class” below) is on record as “active”. For the same compound, the Cured/Infected in data set [3] is listed as 3/4. In addition, the “Mean Survival Days (MSD)” value in data set [3] was more than 60 days.

Turning to `CCCCCCCCCCCCCCCCOP(=O)([O-])OCC[N+](C)(C)C` [Miltefosine, reference compound], the IC50 in data set [4] was determined as 0.359 µM; in data set [5], 1.84 µM.

With `Nc1nc(N)nc(Nc2ccc([As]3SCC(CO)S3)cc2)n1` (stereo not drawn) [Melarsoprol, reference compound], the IC50 in data set [1] turned out to be 0.004 µM; in “Cytotoxicity in L6 cells” it was 9.6 µM.

Take `CN(C)c1nc(N/N=C/c2ccc([N+](=O)[O-])o2)nc(N(C)C)n1` [Compound 7]: in the data set with T. b. rhodesiense (read-out: IC50 against trypomastigotes of T. brucei rhodesiense), the IC50 is 0.003 µM.

Turning to `Cn1c([N+](=O)[O-])cnc1-c1nnc(N2CCN(C(=O)c3ccccc3)CC2)s1` [Compound 18g], the IC50 in [2] stood at 0.3 µM. The “TDR criteria class” value in data set [4] is “active”. Also, the cure rate in data set [3] (50 mg/kg/day i.p. for 4 days, until 60 days after infection) amounted to 100%. In addition, in data set [3], the Cured/Infected is given as 4/4 and the “Mean Survival Days (MSD)” value is more than 60 days.

As for `CSc1ccc(OCc2ncc([N+](=O)[O-])n2C)cc1` [Fexinidazole], the cure rate in the data set on T. b. gambiense is 91%.

As to `CC(C)N(CCO/N=C/c1ccc([N+](=O)[O-])s1)C(C)C` [Compound 11], the “MIC, trypanocidal activity” value in the data set with T. brucei is recorded as 1 µg/mL (≈ 3.34 µM).

On to `O=[N+]([O-])c1ccc(-c2nnc(N3CCN(c4ccccc4)CC3)s2)s1` [Compound 17e], for which the IC50 worked out at 11.8 µM in data set [1] (setting [7]) and 56.5 µM in the data set “in vitro”.

Turning to `CC(=O)N1CCN(c2nnc(-c3ccc([N+](=O)[O-])s3)s2)CC1` [Compound 17f], the IC50 in [1] (setting [7]) is 1.89 µM; in “in vitro” it was 225 µM.

The compound `COc1cc([C@@H]2c3cc4c(cc3[C@H](O)[C@H]3COC(=O)[C@H]23)OCO4)cc(OC)c1OC` [Podophyllotoxin] showed an IC50 in “Cytotoxicity in L6 cells” of 0.006 µM.

On to `O=[N+]([O-])c1cn2c(n1)[S+]([O-])CC(OCc1ccc(OC(F)(F)F)cc1)C2` (stereo not drawn) [Compound 3], for which, in the data set with HAT mouse model, the “cure rate in an acute infection mouse model of HAT” value is 100%. Further, in data set [6], the metabolic stability entry was “good metabolic stability”.

In the case of `CN1CCN(c2nnc(-c3ccc([N+](=O)[O-])s3)s2)CC1` [Compound 17d], the IC50 in data set [1] (setting [7]) stood at 1.15 µM; in “in vitro”, 40.8 µM.

With `CC(=O)N1CCN(c2nnc(-c3ncc([N+](=O)[O-])n3C)s2)CC1` [Compound 18f], the figures for the IC50 (in data set [1] (setting [7]); in data set [2]; in “in vitro”) were 0.089 µM, 0.468 µM and more than 267 µM, respectively. In addition, the Cured/Infected in data set [3] is listed as 3/4. For the same compound, in [3], the “Mean Survival Days (MSD)” value was more than 60 days.

For the compound `O=c1c2nc([N+](=O)[O-])cn2ccn1Cc1ccc(-c2ccc(OC(F)(F)F)cc2)cn1` [Compound 6], the IC50 in the data set on T. b. brucei (setting [9]) is 0.002 µM.

For the compound `O=[N+]([O-])c1ccc(-c2nnc(N3CCCCC3)s2)o1` [Compound 16a], the results for the IC50 (in data set [1] (setting [7]); in the data set “in vitro”) were 0.242 µM and 2.49 µM, respectively.

As to `O=[N+]([O-])c1ccc(-c2nnc(N3CCOCC3)s2)o1` [Compound 16b], the IC50 in [1] (setting [7]) stood at 0.914 µM; in “in vitro” it was 5.67 µM.

`O=C(N/N=C\c1coc([N+](=O)[O-])c1)C12CC3CC(C1)CC(C(=O)N/N=C/c1ccc([N+](=O)[O-])o1)(C3)C2` [Compound 10]: the IC50 in the data set on T. brucei (read-out: IC50 against T. brucei) is 0.075 µM.

With `Cn1c([N+](=O)[O-])cnc1-c1nnc(N2CCCCC2)s1` [Compound 18a], the IC50 in data set [1] (setting [7]) was 0.51 µM; in data set [2], 0.897 µM; in [4], 0.476 µM; in data set [5], 4.76 µM; in “in vitro”, more than 306 µM. Further, the “TDR criteria class” value in data set [4] is recorded as “active”.

Turning to `O=[N+]([O-])c1nccn1CCCNc1ccnc2c(Cl)cccc12` [Compound 2], the IC50 in the data set on T. b. rhodesiense (setting [8]) is 1.29 µM.

By IC50 is commonly meant the concentration that inhibits the measured activity by half.
